Numbered stars: 1 amine (or outer) side, 2 acyl side, 3 side chain; on linkers, the order of the positions; unused ones are H or OH. Bridge positions count the residues as written; N and C are the ends. Square brackets hold non-standard residues; d marks the D form. Side chains are listed from the residue outwards. Peptide text beside a SMILES is read from it. * marks the point of attachment. γGlu = O=C(O)[C@H](CCC(=O)[*:2])N[*:1]; Palmitoyl = CCCCCCCCCCCCCCCC(=O)*; Aib = CC(C)(N)C(=O)O
Key:
human GLP-1R = molecular target: T1, human GLP-1R (Homo sapiens, UniProt P43220); experiment: cAMP formation in HEK293 cells expressing human GLP-1R; type: cell-based; settings: 15 min at 37° C.
T1 construct: expressed in transfected cells; host or cells: HEK293
Text: (§1) Similarly, activation of the GLP-1 receptor by a GLP-1 agonist will stimulate cellular cAMP formation. Thus, production of cAMP in suitable cells expressing one of these two receptors can be used to monitor the relevant receptor activity.
(§2) The skilled person will be aware of suitable assay formats, and examples are provided below. […] (Where sequences of precursor proteins are referred to, it should of course be understood that assays may make use of the mature protein, lacking the signal sequence).
(§3) On the day of analysis, growth medium was removed and the cells washed once with 200 μl Tyrode buffer. Cells were incubated in […] containing increasing concentrations of test peptides, 100 μM IBMX, and 6 mM glucose for 15 min at 37° C. The reaction was stopped by addition of 25 μl 0.5 M HCl and incubated on ice for 60 min. The cAMP content was estimated using the FlashPlate® cAMP kit from Perkin-Elmer. EC50 values were estimated by computer aided curve fitting.

human glucagon receptor = molecular target: T2, human glucagon receptor (Homo sapiens, UniProt P47871); experiment: cAMP formation in HEK293 cells expressing the human glucagon receptor; type: cell-based; settings: 15 min at 37° C., read-out: EC50 (nM) GuR
T2 construct: expressed in transfected cells; host or cells: HEK293
Text: as §1, §2, §3

T1 sequence (P43220 24-463): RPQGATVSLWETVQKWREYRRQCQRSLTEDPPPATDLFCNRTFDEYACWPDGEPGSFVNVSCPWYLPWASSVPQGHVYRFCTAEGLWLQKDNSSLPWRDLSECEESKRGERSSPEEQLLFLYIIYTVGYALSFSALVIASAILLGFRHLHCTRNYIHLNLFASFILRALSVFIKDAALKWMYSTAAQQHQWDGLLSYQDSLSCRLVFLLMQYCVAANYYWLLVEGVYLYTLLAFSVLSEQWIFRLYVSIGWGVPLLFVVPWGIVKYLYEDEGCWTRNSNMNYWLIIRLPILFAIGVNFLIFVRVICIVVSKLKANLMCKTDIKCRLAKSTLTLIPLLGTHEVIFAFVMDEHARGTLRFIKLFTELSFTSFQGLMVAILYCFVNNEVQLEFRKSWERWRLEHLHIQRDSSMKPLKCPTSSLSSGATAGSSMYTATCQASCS
T2 sequence (P47871 26-477): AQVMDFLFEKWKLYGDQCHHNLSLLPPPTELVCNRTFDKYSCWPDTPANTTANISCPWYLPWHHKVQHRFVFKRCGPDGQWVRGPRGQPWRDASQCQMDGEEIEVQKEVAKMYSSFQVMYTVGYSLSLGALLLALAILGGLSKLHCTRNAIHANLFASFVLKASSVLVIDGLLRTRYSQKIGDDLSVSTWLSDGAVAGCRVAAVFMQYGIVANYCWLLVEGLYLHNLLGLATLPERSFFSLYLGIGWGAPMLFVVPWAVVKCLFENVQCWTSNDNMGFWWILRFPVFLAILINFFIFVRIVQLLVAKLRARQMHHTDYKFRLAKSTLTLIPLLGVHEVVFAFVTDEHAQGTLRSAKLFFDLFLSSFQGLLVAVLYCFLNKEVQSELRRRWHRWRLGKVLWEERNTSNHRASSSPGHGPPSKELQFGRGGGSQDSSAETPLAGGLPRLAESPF

| Compound | EC50 (human GLP-1R) | EC50 (human glucagon receptor) |
| --- | --- | --- |
| CC(C)C[C@H](NC(=O)[C@H](CC(C)C)NC(=O)[C@H](Cc1c[nH]c2ccccc12)NC(=O)[C@H](CCC(=O)O)NC(=O)[C@@H](NC(=O)[C@H](Cc1ccccc1)NC(=O)[C@H](CC(=O)O)NC(=O)[C@H](Cc1c[nH]cn1)NC(=O)[C@H](C)NC(=O)[C@H](C)NC(=O)[C@H](CCCCN)NC(=O)[C@H](CO)NC(=O)[C@H](CC(=O)O)NC(=O)[C@H](CC(C)C)NC(=O)[C@H](Cc1ccc(O)cc1)NC(=O)[C@H](CCCCN)NC(=O)[C@H](CO)NC(=O)[C@H](Cc1ccc(O)cc1)NC(=O)[C@H](CC(=O)O)NC(=O)[C@H](CO)NC(=O)[C@@H](NC(=O)[C@H](Cc1ccccc1)NC(=O)[C@@H](NC(=O)CNC(=O)[C@H](CCC(N)=O)NC(=O)C(C)(C)NC(=O)[C@@H](N)Cc1c[nH]cn1)[C@@H](C)O)[C@@H](C)O)C(C)C)C(=O)N[C@@H](CCCNC(=N)N)C(=O)N[C@@H](C)C(N)=O [Compound 45] (H-H[Aib]QGTFTSDYSKYLDSKAAHDFVEWLLRA-NH2) | 0.08 nM | 0.06 nM |
| CCCCCCCCCCCCCCCC(=O)N[C@@H](CCC(=O)NCCCC[C@H](NC(=O)[C@H](C)NC(=O)[C@H](C)NC(=O)[C@H](CCCCN)NC(=O)[C@H](CO)NC(=O)[C@H](CC(=O)O)NC(=O)[C@H](CC(C)C)NC(=O)[C@H](Cc1ccc(O)cc1)NC(=O)[C@H](CCCCN)NC(=O)[C@H](CO)NC(=O)[C@H](Cc1ccc(O)cc1)NC(=O)[C@H](CC(=O)O)NC(=O)[C@H](CO)NC(=O)[C@@H](NC(=O)[C@H](Cc1ccccc1)NC(=O)[C@@H](NC(=O)CNC(=O)[C@H](CCC(N)=O)NC(=O)[C@H](CO)NC(=O)[C@@H](N)Cc1c[nH]cn1)[C@@H](C)O)[C@@H](C)O)C(=O)N[C@@H](CC(=O)O)C(=O)N[C@@H](Cc1ccccc1)C(=O)N[C@H](C(=O)N[C@@H](CCC(=O)O)C(=O)N[C@@H](Cc1c[nH]c2ccccc12)C(=O)N[C@@H](CC(C)C)C(=O)N[C@@H](CC(C)C)C(=O)N[C@@H](CCCNC(=N)N)C(=O)N[C@@H](C)C(N)=O)C(C)C)C(=O)O [Compound 204] (H-HSQGTFTSDYSKYLDSKAAK([γGlu-Palmitoyl])DFVEWLLRA-NH2) | 0.1 nM | 0.04 nM |
| CCCCCCCCCCCCCCCC(=O)N[C@@H](CCC(=O)NCCCC[C@H](NC(=O)[C@H](CC(C)C)NC(=O)[C@H](CC(C)C)NC(=O)[C@H](Cc1c[nH]c2ccccc12)NC(=O)[C@H](CCC(=O)O)NC(=O)[C@@H](NC(=O)[C@H](Cc1ccccc1)NC(=O)[C@H](CC(=O)O)NC(=O)[C@H](Cc1c[nH]cn1)NC(=O)[C@H](C)NC(=O)[C@H](C)NC(=O)[C@H](CCCCN)NC(=O)[C@H](CO)NC(=O)[C@H](CC(=O)O)NC(=O)[C@H](CC(C)C)NC(=O)[C@H](Cc1ccc(O)cc1)NC(=O)[C@H](CCCCN)NC(=O)[C@H](CO)NC(=O)[C@H](Cc1ccc(O)cc1)NC(=O)[C@H](CC(=O)O)NC(=O)[C@H](CO)NC(=O)[C@@H](NC(=O)[C@H](Cc1ccccc1)NC(=O)[C@@H](NC(=O)CNC(=O)[C@H](CCC(N)=O)NC(=O)[C@H](CO)NC(=O)[C@@H](N)Cc1c[nH]cn1)[C@@H](C)O)[C@@H](C)O)C(C)C)C(=O)N[C@@H](C)C(N)=O)C(=O)O [Compound 205] (H-HSQGTFTSDYSKYLDSKAAHDFVEWLLK([γGlu-Palmitoyl])A-NH2) | 0.09 nM | 0.1 nM |
| CCCCCCCCCCCCCCCC(=O)N[C@@H](CCC(=O)NCCCC[C@H](NC(=O)[C@H](CO)NC(=O)[C@H](CC(=O)O)NC(=O)[C@H](CC(C)C)NC(=O)[C@H](Cc1ccc(O)cc1)NC(=O)[C@H](CCCCN)NC(=O)[C@H](CO)NC(=O)[C@H](Cc1ccc(O)cc1)NC(=O)[C@H](CC(=O)O)NC(=O)[C@H](CO)NC(=O)[C@@H](NC(=O)[C@H](Cc1ccccc1)NC(=O)[C@@H](NC(=O)CNC(=O)[C@H](CCC(N)=O)NC(=O)C(C)(C)NC(=O)[C@@H](N)Cc1c[nH]cn1)[C@@H](C)O)[C@@H](C)O)C(=O)N[C@@H](C)C(=O)N[C@@H](C)C(=O)N[C@@H](Cc1c[nH]cn1)C(=O)N[C@@H](CC(=O)O)C(=O)N[C@@H](Cc1ccccc1)C(=O)N[C@H](C(=O)N[C@@H](CCC(=O)O)C(=O)N[C@@H](Cc1c[nH]c2ccccc12)C(=O)N[C@@H](CC(C)C)C(=O)N[C@@H](CC(C)C)C(=O)N[C@@H](CO)C(=O)N[C@@H](C)C(N)=O)C(C)C)C(=O)O [Compound 208] | 0.11 nM | 0.16 nM |
| CCCCCCCCCCCCCCCC(=O)NCCC(=O)NCCCC[C@H](NC(=O)[C@H](CO)NC(=O)[C@H](CC(=O)O)NC(=O)[C@H](CC(C)C)NC(=O)[C@H](Cc1ccc(O)cc1)NC(=O)[C@H](CCCCN)NC(=O)[C@H](CO)NC(=O)[C@H](Cc1ccc(O)cc1)NC(=O)[C@H](CC(=O)O)NC(=O)[C@H](CO)NC(=O)[C@@H](NC(=O)[C@H](Cc1ccccc1)NC(=O)[C@@H](NC(=O)CNC(=O)[C@H](CCC(N)=O)NC(=O)C(C)(C)NC(=O)[C@@H](N)Cc1c[nH]cn1)[C@@H](C)O)[C@@H](C)O)C(=O)N[C@@H](C)C(=O)N[C@@H](C)C(=O)N[C@@H](Cc1c[nH]cn1)C(=O)N[C@@H](CC(=O)O)C(=O)N[C@@H](Cc1ccccc1)C(=O)N[C@H](C(=O)N[C@@H](CCC(=O)O)C(=O)N[C@@H](Cc1c[nH]c2ccccc12)C(=O)N[C@@H](CC(C)C)C(=O)N[C@@H](CC(C)C)C(=O)N[C@@H](CO)C(=O)N[C@@H](C)C(N)=O)C(C)C [Compound 215] | 0.23 nM | – |
| CCCCCCCCCCCCCCCC(=O)NCCCCCCCC(=O)NCCCC[C@H](NC(=O)[C@H](CO)NC(=O)[C@H](CC(=O)O)NC(=O)[C@H](CC(C)C)NC(=O)[C@H](Cc1ccc(O)cc1)NC(=O)[C@H](CCCCN)NC(=O)[C@H](CO)NC(=O)[C@H](Cc1ccc(O)cc1)NC(=O)[C@H](CC(=O)O)NC(=O)[C@H](CO)NC(=O)[C@@H](NC(=O)[C@H](Cc1ccccc1)NC(=O)[C@@H](NC(=O)CNC(=O)[C@H](CCC(N)=O)NC(=O)C(C)(C)NC(=O)[C@@H](N)Cc1c[nH]cn1)[C@@H](C)O)[C@@H](C)O)C(=O)N[C@@H](C)C(=O)N[C@@H](C)C(=O)N[C@@H](Cc1c[nH]cn1)C(=O)N[C@@H](CC(=O)O)C(=O)N[C@@H](Cc1ccccc1)C(=O)N[C@H](C(=O)N[C@@H](CCC(=O)O)C(=O)N[C@@H](Cc1c[nH]c2ccccc12)C(=O)N[C@@H](CC(C)C)C(=O)N[C@@H](CC(C)C)C(=O)N[C@@H](CO)C(=O)N[C@@H](C)C(N)=O)C(C)C [Compound 216] | 0.24 nM | – |
| CCCCCCCCCCCCCCCC(=O)NCCCC[C@H](N)C(=O)NCCCC[C@H](NC(=O)[C@H](CO)NC(=O)[C@H](CC(=O)O)NC(=O)[C@H](CC(C)C)NC(=O)[C@H](Cc1ccc(O)cc1)NC(=O)[C@H](CCCCN)NC(=O)[C@H](CO)NC(=O)[C@H](Cc1ccc(O)cc1)NC(=O)[C@H](CC(=O)O)NC(=O)[C@H](CO)NC(=O)[C@@H](NC(=O)[C@H](Cc1ccccc1)NC(=O)[C@@H](NC(=O)CNC(=O)[C@H](CCC(N)=O)NC(=O)C(C)(C)NC(=O)[C@@H](N)Cc1c[nH]cn1)[C@@H](C)O)[C@@H](C)O)C(=O)N[C@@H](C)C(=O)N[C@@H](C)C(=O)N[C@@H](Cc1c[nH]cn1)C(=O)N[C@@H](CC(=O)O)C(=O)N[C@@H](Cc1ccccc1)C(=O)N[C@H](C(=O)N[C@@H](CCC(=O)O)C(=O)N[C@@H](Cc1c[nH]c2ccccc12)C(=O)N[C@@H](CC(C)C)C(=O)N[C@@H](CC(C)C)C(=O)N[C@@H](CO)C(=O)N[C@@H](C)C(N)=O)C(C)C [Compound 217] | 0.09 nM | – |
| CSCC[C@H](NC(=O)[C@H](CC(C)C)NC(=O)[C@H](Cc1c[nH]c2ccccc12)NC(=O)[C@@H](NC(=O)[C@H](Cc1ccccc1)NC(=O)[C@H](CC(=O)O)NC(=O)[C@@H]1CCC(=O)NCCCC[C@H](NC(=O)[C@H](CC(=O)O)NC(=O)[C@H](CC(C)C)NC(=O)[C@H](Cc2ccc(O)cc2)NC(=O)[C@H](CCCCN)NC(=O)[C@H](CO)NC(=O)[C@H](Cc2ccc(O)cc2)NC(=O)[C@H](CC(=O)O)NC(=O)[C@H](CO)NC(=O)[C@@H](NC(=O)[C@H](Cc2ccccc2)NC(=O)[C@@H](NC(=O)CNC(=O)[C@H](CCC(N)=O)NC(=O)[C@H](CO)NC(=O)[C@@H](N)Cc2c[nH]cn2)[C@@H](C)O)[C@@H](C)O)C(=O)N[C@@H](CCCNC(=N)N)C(=O)N[C@@H](CCCNC(=N)N)C(=O)N[C@@H](C)C(=O)N1)C(C)C)C(=O)N[C@@H](CC(N)=O)C(=O)N[C@H](C(N)=O)[C@@H](C)O [Compound 257] (H-HSQGTFTSDYSKYLDKRRAEDFVWLMNT-NH2; lactam 16-20) | 0.1 nM | – |
| CCCCCCCCCCCCCCCC(=O)N[C@@H](CCC(=O)NCCCC[C@H](NC(=O)[C@H](CO)NC(=O)[C@H](CC(=O)O)NC(=O)[C@H](CC(C)C)NC(=O)[C@H](Cc1ccc(O)cc1)NC(=O)[C@H](CCCCN)NC(=O)[C@H](CO)NC(=O)[C@H](Cc1ccc(O)cc1)NC(=O)[C@H](CC(=O)O)NC(=O)[C@H](CO)NC(=O)[C@@H](NC(=O)[C@H](Cc1ccccc1)NC(=O)[C@@H](NC(=O)CNC(=O)[C@H](CCC(N)=O)NC(=O)[C@H](CO)NC(=O)[C@@H](N)Cc1c[nH]cn1)[C@@H](C)O)[C@@H](C)O)C(=O)N[C@@H](C)C(=O)N[C@@H](C)C(=O)N[C@@H](Cc1c[nH]cn1)C(=O)N[C@@H](CC(=O)O)C(=O)N[C@@H](Cc1ccccc1)C(=O)N[C@H](C(=O)N[C@@H](CCC(=O)O)C(=O)N[C@@H](Cc1c[nH]c2ccccc12)C(=O)N[C@@H](CC(C)C)C(=O)N[C@@H](CC(C)C)C(=O)N[C@@H](CCCNC(=N)N)C(=O)N[C@@H](C)C(N)=O)C(C)C)C(=O)O [Compound 262] (H-HSQGTFTSDYSKYLDSK([γGlu-Palmitoyl])AAHDFVEWLLRA-NH2) | 0.11 nM | – |
| H-HSQGTFTSDYSKYLDSKAAHDFVEWLLRA-NH2 [Compound 48] | – | 0.06 nM |
| H-HSQGTFTSDYSKYLDSKAAQDFVWLMNT-NH2 [Compound 260] | – | 0.07 nM |
| H-HSQGTFTSDYSRYLDERRAQDFVWLMNT-NH2 [Compound 258] | – | 0.06 nM |
| H-HSQGTFTSDYSRYLDSRRAKDFVWLLNT-NH2 [Compound 252] | 0.5 nM | – |

— patent US20130157953A1, “TREATMENT OF CARDIAC CONDITIONS” (Zealand Pharma A/S, priority 2010, published 2013)
